Converted amounts (≈) assume the structure as drawn.
System: A. baumannii
Experiment: microbe, parasite or virus in culture
Settings: for MIC range: 10 MDR isolates; for MIC range / MIC: CAMHB, MCPs read at 80% growth inhibition; for MIC90 / MIC: Acinetobacter baumannii
Outline: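 CLSI broth microdilution (M07/M100); inoculum from 0.5 McFarland suspension diluted in CAMHB; MIC = lowest concentration with no visible growth or where OD600 stops falling.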

| SMILES | MIC range | MIC90 | MIC (ATCC19606, ATCC 19606) | MIC (ATCC17978, ATCC 17978, one replicate) |
| --- | --- | --- | --- | --- |
| CN1C(=O)[C@H](CCCN)NC(=O)[C@H](CCCN)NCc2ccccc2Sc2ccccc2CNC(=O)[C@@H]1Cc1c[nH]c2ccccc12 [RO7036668] | 1 to 16 mg/L | 16 µg/mL (≈ 24.4 µM) | 4 µg/mL (≈ 6.1 µM) | – |
| CN1C(=O)[C@H](CCCCN)NC(=O)[C@H](CCCN)NCc2cccnc2Sc2c(Cl)ccc(-c3ccc(C(=O)O)cc3)c2CNC(=O)[C@@H]1Cc1c[nH]c2ccccc12 [RO7202110] | ≤0.06 − 0.12 mg l^−1 | 0.12 µg/mL (≈ 0.145 µM) | ≤ 0.06 µg/mL | ≤ 0.06 µg/mL |

— article PMC10794144, “A novel antibiotic class targeting the lipopolysaccharide transporter” (Nature, 2024)
